Assay results from patent EP1493444A1, “Pharmaceutical composition used as anti-infective of the upper respiratory tract” (priority 2003, dated 2005).

Test system: muqueuse
Test: Comparative acute in vivo toxicity (mucosal irritation, C20)
Parameters: species or system lapin
Settings: for concentration théorique provoquant une irritation de la muqueuse moyenne identique (C20): rabbit, in vivo
Description: Enfin, une autre expérience a encore consisté à comparer la toxicité aiguë in vivo du polihexanide avec celle d'autres composés.
A cet effet, la toxicité du polihexanide a été comparée in vivo chez le lapin à celle du digluconate de chlorhexidine, et à celle de trois chlorures de benzyldiméthylalkylammonium.
Pour chacune des substances étudiées, une concentration théorique provoquant une irritation de la muqueuse moyenne identique (C20) a été déterminée.
Ces concentrations sont respectivement : • 0,25 g % pour le chlorure de benzalkonium • 0,28 g % pour le chlorure de benzyldiméthyldodecylammonium • 0,32 g % pour le chlorure de benzyldiméthylhexadecylanmonium • 0,54 g % pour le digluconate de chlorhexidine • 12,2 g % pour le polihexanide.
Ces valeurs montrent par conséquent, que le polihexanide est beaucoup moins toxique pour la muqueuse que les autres composés testés, puisque sa valeur C20 est 22 fois supérieure à celle de la chlorhexidine et 44 fois plus élevée que la valeur moyenne des chlorures de benzalkonium.

Compound	concentration théorique provoquant une irritation de la muqueuse moyenne identique (C20)	valeur C20 supérieure à celle de la chlorhexidine (ratio of C20 values, versus chlorhexidine) [fois]	valeur C20 plus élevée que la valeur moyenne des chlorures de benzalkonium (ratio of C20 values, versus the mean of the benzalkonium chlorides) [fois]
CCCCCCCCCCCCC[N+](C)(C)Cc1ccccc1 [chlorure de benzalkonium]	0,25 g %		
CCCCCCCCCCCC[N+](C)(C)Cc1ccccc1 [chlorure de benzyldiméthyldodecylammonium]	0,28 g %		
CCCCCCCCCCCCCCCC[N+](C)(C)Cc1ccccc1 [chlorure de benzyldiméthylhexadecylanmonium]	0,32 g %		
[H]/N=C(\N/C(=N/[H])NCCCCCCNC(=N)NC(=N)Nc1ccc(Cl)cc1)Nc1ccc(Cl)cc1 [digluconate de chlorhexidine]	0,54 g %		
polihexanide	12,2 g %	22	44
